The record followed here is patent US6492137B1, “Response element compositions and assays employing same” (The Salk Institute for Biological Studies, priority 1989, dated 2002).

One data set has as its target T1, RARα (Homo sapiens, UniProt P10276).
T1 sequence (P10276 1-462): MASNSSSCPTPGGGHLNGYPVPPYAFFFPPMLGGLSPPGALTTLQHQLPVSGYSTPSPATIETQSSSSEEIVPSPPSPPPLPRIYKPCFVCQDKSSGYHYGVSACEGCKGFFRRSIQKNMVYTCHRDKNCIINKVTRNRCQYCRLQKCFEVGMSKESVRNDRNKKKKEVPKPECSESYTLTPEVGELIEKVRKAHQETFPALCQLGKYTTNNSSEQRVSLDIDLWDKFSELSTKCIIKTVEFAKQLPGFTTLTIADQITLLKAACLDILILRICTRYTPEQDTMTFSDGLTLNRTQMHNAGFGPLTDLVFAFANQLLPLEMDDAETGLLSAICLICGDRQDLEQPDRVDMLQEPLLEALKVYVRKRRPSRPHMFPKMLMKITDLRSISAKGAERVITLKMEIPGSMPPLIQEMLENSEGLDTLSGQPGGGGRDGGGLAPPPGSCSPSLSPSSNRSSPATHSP
Kind of data set: ΔSV-CAT reporter cotransfection assay in CV-1 cells with RARα expression plasmid, ±RA. Format: cell-based. On the set-up: expressed in transfected cells; host or cells: CV-1 (monkey kidney). As to conditions: RA 1 μM. The source says:
Receptor expression plasmids used in the following cotransfection assays have been described previously (pRShTRβ [see Thompson, et al., Proc. Natl. Acad. Sci. U.S.A. 86: 3494-3498 (1989)]; pRShRARα [see Giguere, et al., Nature 330: 624-629 (1987)]; pRShRARβ and pRshRARγ [see Ishikawa, et al., Mol. Endocrinol, 4: 837-844 (1990)]; and pRShVDR, [Schule, et al., Cell 61: 497-504 (1990)]. A basal reporter plasmid ΔSV-CAT was constructed by replacing the TK promoter in TK-CAT [Damm, et al., Nature 339: 593-597 (1989)] with the SphI-HindIII fragment of the SV40 early promoter. All of the recombinant CAT reporter plasmids used herein harbor a single copy of the indicated oligonucleotides at the unique HindIII site upstream of the SV40 promoter. Identity of the inserted oligonucleotides was confirmed by sequencing. To improve production of receptor proteins in COS cells, a new eukaryotic expression vector pCMX was prepared by modifying the plasmid CDM8 [Seed, B., Nature 329: 840-842 (1987)]. The CDM8 was cut with MluI and StuI in order to release the DNA fragment encoding the CMV/T7 promoter, SV40 small t intron/poly A signal, polyoma virus enhancer/origin, and SV40 enhancer/origin. The resulting fragment was ligated to a larger fragment of PvuII-digested PUC19. An internal deletion was introduced between unique BamHI and BclI sites present in the DCM8 portion. The stuffer sequence flanked by XbaI sites was replaced with a synthetic polylinker coding for 5′-KpnI/Asp718-EcoRV-BamHI -MscI-NheI-3′, followed by a stretch of 5′-[…]-3′ (SEQ ID NO:48) which can function as a universal termination signal for protein translation. The coding sequence of the luciferase [de Wet, et al., Mol. Cell. Biol. 7: 725-737 (1987)] and human TRβ, RARα, and VDR was placed in the polylinker region of the pCMX, generating pCMX-LUC, Pcmx-Htrβ, pCMX-hRARα, and pCMX-hVDR, respectively. The translation start site of the RARα was modified to […] by attaching the synthetic linker encoding a consensus translation start signal [Hollenberg, et al., Cell 55: 899-906 (1988)]. […]

The target of a further data set is T2, VDR (Homo sapiens, UniProt P11473).
T2 sequence (P11473 1-427): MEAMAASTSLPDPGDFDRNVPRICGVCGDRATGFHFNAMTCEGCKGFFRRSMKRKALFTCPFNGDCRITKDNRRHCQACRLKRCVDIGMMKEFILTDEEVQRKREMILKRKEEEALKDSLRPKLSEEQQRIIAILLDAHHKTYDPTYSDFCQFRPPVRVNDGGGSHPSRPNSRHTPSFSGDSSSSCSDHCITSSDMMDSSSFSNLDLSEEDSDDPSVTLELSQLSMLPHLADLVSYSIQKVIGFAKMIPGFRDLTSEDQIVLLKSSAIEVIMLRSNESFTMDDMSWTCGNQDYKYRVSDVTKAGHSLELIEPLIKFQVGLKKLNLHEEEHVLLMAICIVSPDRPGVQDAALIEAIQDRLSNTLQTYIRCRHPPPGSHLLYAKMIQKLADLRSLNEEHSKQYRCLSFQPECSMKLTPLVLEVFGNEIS
Kind of data set: Gel retardation DNA-binding assay with VDR-expressing COS cell extracts. To be noted: VDR COS cell extract. More on the design: expressed in transfected cells; host or cells: COS cells (whole-cell extract). How it is done:
For DNA binding assays, COS cells were cultured in DMEM with 10% calf bovine serum and transfected by the calcium phosphate method with 20 μg of the pCMX receptor expression plasmid for 6 hours followed by a glycerol shock. After incubating the transfected COS cells for another 48 hours, the cells were harvested to prepare extracts for the DNA binding assay, carried out as described by Damm et al., Nature 339: 593-597 (1989). The extracts were made in 20 mM HEPES (pH 7.4), 0.4 M KCl, 2 mM DTT and 20% glycerol. A similar method was employed to prepare a whole cell extract from F9 stem cells. For the binding, 5 μg (COS) or 10 μg (F9) of proteins was incubated on ice for 20 minutes, first in 20 mM HEPES, 80 mM KCl, 1 mM DTT, 0.1% NP40, 2.5 μg of poly dI/dC, and 10% glycerol (cold competitor oligonucleotides, when included, were added during this pre-incubation period). Then 40 fmole of ^32P-labeled oligonucleotide probe (1-2×10^5 cpm, prepared by filling-in reaction using Klenow polymerase in the presence of α-^32P-dCTP) was added to the reaction mixture, followed by incubation at room temperature for 30 minutes. The receptor-DNA complexes were resolved by electrophoresis through 5% polyacrylamide gel containing 5% glycerol at 6 V/cm at room temperature.
Finally, in vitro DNA-binding assays were carried out with COS cell extracts containing one of these receptor proteins.

In another data set the test system is endogenous RA receptor. In words: Delta-MTV-CAT constructs, RA induction in CV-1 cells without cotransfected RAR expression vector. Format: cell-based, monkey. How it is done:
(§1) Cells were transfected in 10 cm dishes with 10 μg of DNA containing 5 μg of reporter plasmid, 1-2 μg of either RSV-LUC (a), or RSV-βGAL or pCH110 (c and d), pGEM4 as carrier DNA, and for the experiments shown in a and d, 1 μg of RSV-RAR expression vector or the same amount of an RSV vector generating a nonsense transcript. Cells were harvested 1 day after addition of retinoic acid. All CAT assays represent equivalent amounts of β-galactosidase activity; β-GAL assays were normalized to luciferase activity.

For the next data set, the target named is T3, RAR (Homo sapiens, UniProt P10276).
T3 construct: expressed in transfected cells; host or cells: CV-1 (monkey kidney)
T3 sequence (P10276 1-462): T1 sequence (P10276 1-462)
In words: Delta-MTV constructs, RA induction in CV-1 cells with cotransfected RAR expression vector. It counts as cell-based. To be noted: Delta-MTV-CAT constructs; CV-1 cells. As to the method: (§2) Inspection of the sequences of βRE1, βRE2, and βRE3 (see FIG. 2b) identifies a tandem repeat of the 6 bp motif. The center to center separation of 11 bp between these repeats is one turn of the DNA helix. […] Apparently, a single half site element of the RARβ gene would reciprocally be responsive to the TR, ER, and/or other members of the receptor superfamily.
as §1

The target of the next data set is T4, ER (Homo sapiens, UniProt P03372).
T4 construct: expressed in transfected cells; host or cells: CV-1 (monkey kidney)
T4 sequence (P03372 1-595): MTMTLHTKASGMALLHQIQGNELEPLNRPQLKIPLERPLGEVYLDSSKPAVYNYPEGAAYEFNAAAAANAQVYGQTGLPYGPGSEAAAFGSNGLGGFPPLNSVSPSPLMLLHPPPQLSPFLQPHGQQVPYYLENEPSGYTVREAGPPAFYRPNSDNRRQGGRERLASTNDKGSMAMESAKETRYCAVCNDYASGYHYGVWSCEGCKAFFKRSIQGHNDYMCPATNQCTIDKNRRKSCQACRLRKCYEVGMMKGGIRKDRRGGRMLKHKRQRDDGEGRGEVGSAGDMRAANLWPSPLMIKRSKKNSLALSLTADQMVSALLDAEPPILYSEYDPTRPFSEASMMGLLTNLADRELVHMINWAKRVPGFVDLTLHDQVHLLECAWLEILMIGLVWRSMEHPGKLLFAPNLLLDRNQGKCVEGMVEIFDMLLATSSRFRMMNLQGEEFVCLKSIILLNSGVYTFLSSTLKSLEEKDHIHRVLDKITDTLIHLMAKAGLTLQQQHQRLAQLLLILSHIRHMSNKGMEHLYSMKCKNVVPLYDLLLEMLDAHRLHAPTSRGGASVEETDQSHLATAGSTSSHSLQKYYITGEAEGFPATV
Kind of data set: Cotransfection of ER with construct βRE1 in CV-1 cells. It counts as cell-based. To be noted: absence or addition of the appropriate ligand.
Text: as §2

The next data set has as its target T5, GR (Homo sapiens, UniProt P04150).
T5 construct: expressed in transfected cells; host or cells: CV-1 (monkey kidney)
T5 sequence (P04150 1-777): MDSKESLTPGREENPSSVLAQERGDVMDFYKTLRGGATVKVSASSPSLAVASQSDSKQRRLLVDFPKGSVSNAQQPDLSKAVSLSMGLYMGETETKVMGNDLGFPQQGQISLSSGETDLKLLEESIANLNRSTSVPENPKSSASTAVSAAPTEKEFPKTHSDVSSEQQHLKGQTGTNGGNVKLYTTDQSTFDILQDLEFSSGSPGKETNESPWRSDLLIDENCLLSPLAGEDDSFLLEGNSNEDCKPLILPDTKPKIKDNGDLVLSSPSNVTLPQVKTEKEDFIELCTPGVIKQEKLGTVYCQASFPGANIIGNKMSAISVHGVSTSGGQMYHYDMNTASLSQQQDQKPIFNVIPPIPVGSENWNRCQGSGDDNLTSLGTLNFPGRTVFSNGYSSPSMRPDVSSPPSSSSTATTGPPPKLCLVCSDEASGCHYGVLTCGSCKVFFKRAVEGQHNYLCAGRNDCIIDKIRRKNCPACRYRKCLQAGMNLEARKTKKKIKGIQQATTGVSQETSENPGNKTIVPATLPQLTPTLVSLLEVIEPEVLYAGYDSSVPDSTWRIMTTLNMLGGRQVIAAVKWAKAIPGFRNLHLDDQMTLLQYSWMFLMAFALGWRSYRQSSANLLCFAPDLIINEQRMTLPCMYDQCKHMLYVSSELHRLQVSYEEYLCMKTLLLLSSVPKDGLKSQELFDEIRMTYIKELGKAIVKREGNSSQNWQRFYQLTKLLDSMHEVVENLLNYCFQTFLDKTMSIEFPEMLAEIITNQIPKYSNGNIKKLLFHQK
Kind of data set: Cotransfection of GR with construct βRE1 in CV-1 cells. It counts as cell-based. To be noted: absence or addition of the appropriate ligand.
Text: as §2

For another data set, the system named is TR. Kind of data set: Cotransfection of TR with construct βRE1 in CV-1 cells. Format: cell-based. To be noted: cognate ligand.
Text: as §2

Data set [1] deals with T6, vitamin D receptor (VD3R) (Homo sapiens, UniProt P11473).
T6 construct: expressed in transfected cells; host or cells: CV-1 (monkey kidney)
T6 sequence (P11473 1-427): T2 sequence (P11473 1-427)
In words: Cotransfection of vitamin D receptor with construct βRE1 in CV-1 cells. It counts as cell-based. As to conditions: cognate ligand.
Text: as §2

Turning to “DR-3: perfect tandem repeat of AGGTCA hexamers separated by 3 nucleotides (SEQ ID NO:25) (AGCTTCAGGTCAAGGAGGTCAGAGAGCT; DNA, backbone not given here; double-stranded DNA response element with agct overhangs, cloned into reporter)”, the “RA response (in words)” value with RARα was “clear activity”. For the same substance, the “VDR binding to labeled oligonucleotide probe” value with VDR is reported as “specific protein-DNA complex”.
As for “5′-AAGCTTAAG-GGTTCA-CCGAA-AGTTCA-CACGCATATATTAGCTT-3′ (SEQ ID NO:5) (AAGCTTAAGGGTTCACCGAAAGTTCACTCGCATATATTAGCTT; DNA, backbone not given here) [βRE1, oligonucleotide including the β retinoic acid response element]”, the “RA-dependent induction in the absence of cotransfected RAR expression vector” value with endogenous RA receptor was “robust RA-dependent induction”. In addition, in the data set with RAR, the “increase of induction by cotransfection of RAR-alpha expression vector” value is reported as “two-fold”. In the data set with ER, the “activation with cotransfected ER” value was “failed to result in appreciable activation”. In addition, the “activation with cotransfected GR” value in the data set with GR is given as “failed to result in appreciable activation”. In the data set on TR, the “activation with cotransfected TR, fold less” value is on record as 10- to 20 fold. Moreover, the “activation with cotransfected vitamin D receptor, fold less” value in data set [1] was 10- to 20 fold.
